Entries after “also recorded” stand apart in the source; their conditions may differ.
Assays:
[1] = tested on: C2C12 skeletal muscle cells; assay: Reactive species scavenging in C2C12 cells (DCFDA fluorescence); type: cell-based; settings: C2C12 cells in GLT RPMI-1640 medium 5 days, 100 μM compound
Experimental: C2C12 muscle cell myotubes were cultured for 5 days in standard RPMI-1640 tissue culture media or GLT RPMI-1640 media. Corresponding media were independently supplemented with 100 μM of a compound (M4, M14, M8, M28, and M38 investigated). Non-supplemented standard and GLT RPMI-1640 media were also retained as controls. Cells were thereafter washed 3 times in KRB and 20 μM 2′,7′-dichlorofluorescein diacetate (DCFDA), a cell permeant fluorogenic dye that measures hydroxyl, peroxyl and other ROS, was loaded for 1 h. Reactive species detection was measured via fluorescence, with excitation at 495 nm and emission at 530 nm.

[2] = tested on: C2C12 skeletal muscle cells; assay: Toxicity testing: C2C12 cell viability (Calcein AM fluorescence); type: cell-based; settings: C2C12 myotubes cultured 5 days in GLT RPMI-1640 medium (28 mM glucose, 200 μM palmitic acid, 200 μM oleic acid) with 100 μM compound
Experimental: C2C12 muscle cell myotubes were cultured for 5 days in the following […] culture media: a control RPMI-1640 medium; glucolipotoxic (GLT) RPMI-1640 medium (28 mM glucose, 200 μM palmitic acid and 200 μM oleic acid) supplemented with 100 μM of M4; GLT RPMI-1640 medium supplemented with 100 µM of M8; GLT RPMI-1640 medium supplemented with 100 μM of M14; GLT RPMI-1640 medium supplemented with 100 μM of M28; and GLT RPMI-1640 medium supplemented with 100 μM of M38. Following culture, media were aspirated and cells washed 3 times in Krebs-Ringer buffer (KRB). A final concentration of […] Calcein AM Cell Viability Dye (ThermoFischer) in KRB was loaded for 1 h before washing again with KRB. Cell viability was measured via fluorescence, with excitation and emission at 490 nm and 520 nm, respectively.

[3] = tested on: C2C12 skeletal muscle cells; assay: Glucose uptake (2-deoxy glucose) in C2C12 skeletal muscle cells; type: cell-based; settings: C2C12 cells 5 days in GLT DMEM medium with 100 μM compound; 100 nM insulin 1 h
Experimental: C2C12 skeletal muscle cell myotubes were cultured for 5 days in standard DMEM tissue culture media or GLT DMEM media. The media were either used without further supplementation (used as controls) or were independently supplemented with 100 μM of a compound (M4, M8, M14, M28, and M38 investigated). Myotubes were then serum-starved overnight in DMEM supplemented with 5 mM glucose, and thereafter incubated for 1 h in glucose-free DMEM or in glucose-free DMEM supplemented with 100 nM insulin stimulant. The media were thereafter replaced with phosphate buffered saline (PBS) containing 0.125 mM 2-deoxy glucose (2-DG). Glucose uptake reactions were conducted for 30 min, and then terminated by addition of stop buffer (0.4 M HCl+2% dodecyl trimethyl ammonium bromide). 2-deoxyglucose-6-phosphate (2DG6P) detection reagent was applied, and data were acquired using a CLARIOStar luminometer (BMG Labtech, Ortenberg, Germany).

[4] = tested on: High fat-fed mice; assay: Effect on body weight in an in vivo model of obesity; settings: high fat diet mice, 45 mg/kg body weight/day via drinking water, 10 weeks
Experimental: High fat-fed mice were used as an animal model of obesity. The body weights of the mice were monitored over a period of 10 weeks. The following three sets of mice were used in the study: • Non-high fat-fed mice that were administered a normal diet. • High fat-fed mice that were administered a high fat diet. • High fat-fed mice that were administered a high fat diet alongside 45 mg/kg body weight/day of compound M8, which was administered via drinking water.
High fat-fed mice were fed the following high fat diet from Research Diets: (60% fat; D12492). Non-high fat-fed mice were used as a control and were fed the following low fat diet from Research Diets: (10% fat, D12450B). The body weights of the mice were measured throughout.

Compound | intracellular reactive species (% change relative to control) [1] | cell viability (% change relative to control) [2] | insulin-stimulated glucose uptake per total cellular protein [3] | toxic effects on the animals [4] | body weight ([4]; vs high fat-fed mice without compound, 45 mg/kg/day)
FC(F)(F)c1ccc(-n2ccnc2)nc1 [M4, 2-(1H-imidazol-1-yl)-5-(trifluoromethyl)pyridine] | reduces GLT-associated reactive species levels | none of the tested compounds (M4, M8, M14, M28, and M38) reduce C2C12 skeletal muscle cell viability; also recorded: non-toxic to the cells | reverse glucolipotoxic inhibition of insulin-stimulated glucose uptake |  | 
CNCc1ccc(-c2ccco2)nc1 [M8, 6-(2-furanyl)-N-methyl-3-pyridinemethanamine] | reduces GLT-associated reactive species levels | none of the tested compounds (M4, M8, M14, M28, and M38) reduce C2C12 skeletal muscle cell viability; also recorded: non-toxic to the cells | reverse glucolipotoxic inhibition of insulin-stimulated glucose uptake | no toxic effects on the animals | significantly reduces the body weight; also recorded: significant reduction of body weight
CNCc1cc(-c2ccccc2)no1 [M14, 5-[(methylamino)methyl]-3-phenylisoxazole] | reduces GLT-associated reactive species levels | none of the tested compounds (M4, M8, M14, M28, and M38) reduce C2C12 skeletal muscle cell viability; also recorded: non-toxic to the cells | reverse glucolipotoxic inhibition of insulin-stimulated glucose uptake |  | 
NCc1cc(-c2ccccc2)no1 [M28, (3-phenyl-5-isoxazolyl)methanamine] | reduces GLT-associated reactive species levels | none of the tested compounds (M4, M8, M14, M28, and M38) reduce C2C12 skeletal muscle cell viability; also recorded: non-toxic to the cells | reverse glucolipotoxic inhibition of insulin-stimulated glucose uptake |  | 
OCc1ccc(Cn2ccnc2)cc1 [M38, [4-(1H-imidazol-1-ylmethyl)phenyl]methanol] | reduces GLT-associated reactive species levels | none of the tested compounds (M4, M8, M14, M28, and M38) reduce C2C12 skeletal muscle cell viability; also recorded: non-toxic to the cells | reverse glucolipotoxic inhibition of insulin-stimulated glucose uptake |  | 

— patent publication US20240325364A1, “COMPOSITIONS FOR USE IN THE TREATMENT OF METABOLIC SYNDROME” (Nottingham Trent University, priority 2021, published 2024)
